{"source": "patent US8802673B2", "about": "“Heterocyclic amine derivatives” (Hoffmann-La Roche Inc, priority 2011, dated 2014)", "key": {"mouse TAAR1": {"molecular_target": "mouse TAAR1 (Mus musculus (Mouse), UniProt Q923Y8)", "sequence (Q923Y8 whole entry)": "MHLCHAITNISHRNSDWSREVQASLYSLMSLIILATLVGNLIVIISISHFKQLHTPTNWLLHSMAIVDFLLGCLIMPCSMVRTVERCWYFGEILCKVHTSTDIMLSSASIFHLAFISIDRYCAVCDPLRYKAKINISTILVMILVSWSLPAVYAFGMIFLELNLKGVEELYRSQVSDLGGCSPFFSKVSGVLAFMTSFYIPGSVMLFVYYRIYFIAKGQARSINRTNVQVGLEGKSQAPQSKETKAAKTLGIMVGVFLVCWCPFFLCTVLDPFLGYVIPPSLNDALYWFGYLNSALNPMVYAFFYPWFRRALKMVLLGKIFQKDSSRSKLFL", "experiment": "Radioligand binding assay on mouse TAAR1", "settings": "for Ki: mouse TAAR1 (first value of the cell), HEK-293 membranes, read-out: Ki (μM) mouse/rat", "outline": "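Membranes from HEK293 cells stably expressing mouse TAAR1, Kd of radioligand determined per batch by saturation. Compounds tested 10 pM to 10 μM in duplicate, incubated 1 h at 4 °C, then filtration over PEI-soaked GF/C filters and scintillation counting.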"}, "rat TAAR1": {"molecular_target": "rat TAAR1 (Rattus norvegicus (Rat), UniProt Q923Y9)", "sequence (Q923Y9 whole entry)": "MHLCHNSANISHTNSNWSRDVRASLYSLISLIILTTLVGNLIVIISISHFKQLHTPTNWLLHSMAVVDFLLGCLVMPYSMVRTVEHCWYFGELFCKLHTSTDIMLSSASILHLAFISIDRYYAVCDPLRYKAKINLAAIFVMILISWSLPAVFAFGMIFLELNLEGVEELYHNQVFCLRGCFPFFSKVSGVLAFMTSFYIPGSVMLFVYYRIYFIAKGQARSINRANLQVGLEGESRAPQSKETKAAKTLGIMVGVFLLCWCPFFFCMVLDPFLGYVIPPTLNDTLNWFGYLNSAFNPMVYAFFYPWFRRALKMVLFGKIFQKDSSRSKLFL", "experiment": "Radioligand binding assay on rat TAAR1", "settings": "for Ki: rat TAAR1 (second value of the cell), HEK-293 membranes, read-out: Ki (μM) mouse/rat", "outline": "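Membranes from HEK293 cells stably expressing rat TAAR1 were used, with radioligand Kd determined by saturation for each batch. Compounds (10 pM to 10 μM, in duplicate) were incubated for 1 h at 4 °C. Bound radioactivity was collected by filtration onto PEI-soaked GF/C filters and counted by scintillation.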"}}, "note": "pKd: −log10 of the molar value."}
{"smiles": "Clc1ncc(Cl)c(Nc2ccc([C@H]3CNCCO3)cc2)n1", "note": "[Example 186, (S)-2,5-Dichloro-N-(4-(morpholin-2-yl)phenyl)pyrimidin-4-amine]", "values": [{"measurement": "Ki", "setting": "mouse TAAR1", "value": 0.138, "unit": "µM"}, {"measurement": "Ki", "setting": "rat TAAR1", "value": 1.1, "unit": "µM"}]}
{"smiles": "FC(F)(F)COc1ccnc(Nc2ccc([C@H]3CNCCO3)cc2)n1", "note": "[Example 187, ((S)-4-Morpholin-2-yl-phenyl)-[4-(2,2,2-trifluoro-ethoxy)-pyrimidin-2-yl]-amine]", "values": [{"measurement": "Ki", "setting": "mouse TAAR1", "value": 0.0021, "unit": "µM"}, {"measurement": "Ki", "setting": "rat TAAR1", "value": 0.01, "unit": "µM"}]}
{"smiles": "c1cc(C2CC2)nc(Nc2ccc([C@@H]3CNCCO3)cc2)n1", "note": "[Example 189, (4-Cyclopropyl-pyrimidin-2-yl)-((R)-4-morpholin-2-yl-phenyl)-amine]", "values": [{"measurement": "Ki", "setting": "mouse TAAR1", "value": 0.109, "unit": "µM"}, {"measurement": "Ki", "setting": "rat TAAR1", "value": 0.0605, "unit": "µM"}]}
{"smiles": "Fc1cnc(Nc2ccc([C@@H]3CNCCO3)cc2)nc1C1CC1", "note": "[Example 190, (4-Cyclopropyl-5-fluoro-pyrimidin-2-yl)-((R)-4-morpholin-2-yl-phenyl)-amine]", "values": [{"measurement": "Ki", "setting": "mouse TAAR1", "value": 0.0031, "unit": "µM"}, {"measurement": "Ki", "setting": "rat TAAR1", "value": 0.0422, "unit": "µM"}]}
{"smiles": "FS(F)(F)(F)(F)c1ccc(Nc2ccc([C@@H]3CNCCO3)cc2)cc1", "note": "[Example 191, (4-Pentalluorosulfanyl-phenyl)-((R)-4-morpholin-2-yl-phenyl)-amine]", "values": [{"measurement": "Ki", "setting": "mouse TAAR1", "value": 0.001, "unit": "µM"}, {"measurement": "Ki", "setting": "rat TAAR1", "value": 0.0032, "unit": "µM"}]}
{"smiles": "Fc1cc(Nc2ncc(C3CC3)cn2)ccc1[C@@H]1CNCCO1", "note": "[Example 192, (R)-5-Cyclopropyl-N-(3-fluoro-4-(morpholin-2-yl)phenyl)pyrimidin-2-amine]", "values": [{"measurement": "Ki", "setting": "mouse TAAR1", "value": 0.0025, "unit": "µM"}, {"measurement": "Ki", "setting": "rat TAAR1", "value": 0.0026, "unit": "µM"}]}
{"smiles": "Clc1cc(Nc2ncc(C3CC3)cn2)ccc1[C@H]1CNCCO1", "note": "[Example 193, ((S)-3-Chloro-4-morpholin-2-yl-phenyl)-(5-cyclopropyl-pyrimidin-2-yl)-amine]", "values": [{"measurement": "Ki", "setting": "mouse TAAR1", "value": 0.0038, "unit": "µM"}, {"measurement": "Ki", "setting": "rat TAAR1", "value": 0.0196, "unit": "µM"}]}
{"smiles": "Clc1cc(Nc2ncc(C3CC3)cn2)ccc1[C@@H]1CNCCO1", "note": "[Example 194, ((R)-3-Chloro-4-morpholin-2-yl-phenyl)-(5-cyclopropyl-pyrimidin-2-yl)-amine]", "values": [{"measurement": "Ki", "setting": "mouse TAAR1", "value": 0.0021, "unit": "µM"}, {"measurement": "Ki", "setting": "rat TAAR1", "value": 0.0011, "unit": "µM"}]}
{"smiles": "Fc1cc(Nc2ncc(C3CC3)cn2)ccc1[C@H]1CNCCO1", "note": "[Example 195, (S)-5-Cyclopropyl-N-(3-fluoro-4-(morpholin-2-yl)phenyl)pyrimidin-2-amine]", "values": [{"measurement": "Ki", "setting": "mouse TAAR1", "value": 0.0017, "unit": "µM"}, {"measurement": "Ki", "setting": "rat TAAR1", "value": 0.0252, "unit": "µM"}]}
{"smiles": "Fc1cc(Nc2ncc(C(F)(F)F)cn2)ccc1[C@@H]1CNCCO1", "note": "[Example 196, (R)—N-(3-Fluoro-4-(morpholin-2-yl)phenyl)-5-(trifluoromethyl)pyrimidin-2-amine]", "values": [{"measurement": "Ki", "setting": "mouse TAAR1", "value": 0.0049, "unit": "µM"}, {"measurement": "Ki", "setting": "rat TAAR1", "value": 0.004, "unit": "µM"}]}
{"smiles": "Fc1cc(Nc2ncc(C(F)(F)F)cn2)ccc1[C@H]1CNCCO1", "note": "[Example 197, (S)—N-(3-Fluoro-4-(morpholin-2-yl)phenyl)-5-(trifluoromethyl)pyrimidin-2-amine]", "values": [{"measurement": "Ki", "setting": "mouse TAAR1", "value": 0.0031, "unit": "µM"}, {"measurement": "Ki", "setting": "rat TAAR1", "value": 0.0315, "unit": "µM"}]}
{"smiles": "FC(F)(F)c1cc(Nc2ccc([C@@H]3CNCCO3)cc2)ncn1", "note": "[Example 198, (R)—N-(4-(Morpholin-2-yl)phenyl)-6-(trifluoromethyl)pyrimidin-4-amine]", "values": [{"measurement": "Ki", "setting": "mouse TAAR1", "value": 0.0419, "unit": "µM"}, {"measurement": "Ki", "setting": "rat TAAR1", "value": 0.163, "unit": "µM"}]}
{"smiles": "Clc1cc(Nc2ccc([C@@H]3CNCCO3)cc2)ncn1", "note": "[Example 199, (R)-6-Chloro-N-(4-(morpholin-2-yl)phenyl)pyrimidin-4-amine]", "values": [{"measurement": "Ki", "setting": "mouse TAAR1", "value": 0.0231, "unit": "µM"}, {"measurement": "Ki", "setting": "rat TAAR1", "value": 0.056, "unit": "µM"}]}
{"smiles": "FC(F)(F)c1nccc(Nc2ccc([C@@H]3CNCCO3)cc2)n1", "note": "[Example 200, (R)—N-(4-(morpholin-2-yl)phenyl)-2-(trifluoromethyl)pyrimidin-4-amine]", "values": [{"measurement": "Ki", "setting": "mouse TAAR1", "value": 0.0089, "unit": "µM"}, {"measurement": "Ki", "setting": "rat TAAR1", "value": 0.0588, "unit": "µM"}]}
{"smiles": "FC(F)(F)c1cnc(Nc2ccc([C@@H]3CNCCO3)cc2)cn1", "note": "[Example 201, (R)—N-(4-(Morpholin-2-yl)phenyl)-5-(trffluoromethyl)pyrazin-2-amine]", "values": [{"measurement": "Ki", "setting": "mouse TAAR1", "value": 0.008, "unit": "µM"}, {"measurement": "Ki", "setting": "rat TAAR1", "value": 0.0626, "unit": "µM"}]}
{"smiles": "Clc1cnc(Nc2ccc([C@@H]3CNCCO3)c(Cl)c2)nc1", "note": "[Example 202, ((R)-3-Chloro-4-morpholin-2-yl-phenyl)-(5-chloro-pyrimidin-2-yl)-amine]", "values": [{"measurement": "Ki", "setting": "mouse TAAR1", "value": 0.0032, "unit": "µM"}, {"measurement": "Ki", "setting": "rat TAAR1", "value": 0.0065, "unit": "µM"}]}
{"smiles": "FC(F)(F)COc1cnc(Nc2ccc([C@@H]3CNCCO3)c(Cl)c2)nc1", "note": "[Example 203, ((R)-3-Chloro-4-morpholin-2-yl-phenyl)-[5-(2,2,2-trifluoro-ethoxy)-pyrimidin-2-yl]-amine]", "values": [{"measurement": "Ki", "setting": "mouse TAAR1", "value": 0.0022, "unit": "µM"}, {"measurement": "Ki", "setting": "rat TAAR1", "value": 0.0017, "unit": "µM"}]}
{"smiles": "FC(F)(F)c1cnc(Nc2ccc([C@@H]3CNCCO3)c(Cl)c2)nc1", "note": "[Example 204, ((R)-3-Chloro-4-morpholin-2-yl-phenyl)-(5-trifluoromethyl-pyrimidin-2-yl)-amine]", "values": [{"measurement": "Ki", "setting": "mouse TAAR1", "value": 0.0038, "unit": "µM"}, {"measurement": "Ki", "setting": "rat TAAR1", "value": 0.0021, "unit": "µM"}]}
{"smiles": "Clc1cnc(Nc2ccc([C@@H]3CNCCO3)cc2)cn1", "note": "[Example 205, (R)-5-Chloro-N-(4-(morpholin-2-yl)phenyl)pyrazin-2-amine]", "values": [{"measurement": "Ki", "setting": "mouse TAAR1", "value": 0.0026, "unit": "µM"}, {"measurement": "Ki", "setting": "rat TAAR1", "value": 0.162, "unit": "µM"}]}
{"smiles": "Clc1cncc(Nc2ccc([C@@H]3CNCCO3)cc2)n1", "note": "[Example 206, (R)-6-Chloro-N-(4-(morpholin-2-yl)phenyl)pyrazin-2-amine]", "values": [{"measurement": "Ki", "setting": "mouse TAAR1", "value": 0.005, "unit": "µM"}, {"measurement": "Ki", "setting": "rat TAAR1", "value": 0.0963, "unit": "µM"}]}
{"smiles": "Fc1cc(Nc2ncc(OCC(F)(F)F)cn2)ccc1[C@@H]1CNCCO1", "note": "[Example 207, (R)—N-(3-Fluoro-4-(morpholin-2-yl)phenyl)-5-(2,2,2-trifluoroethoxy)pyrimidin-2-amine]", "values": [{"measurement": "Ki", "setting": "mouse TAAR1", "value": 0.0043, "unit": "µM"}, {"measurement": "Ki", "setting": "rat TAAR1", "value": 0.0102, "unit": "µM"}]}
{"smiles": "Fc1cc(Nc2nccc(OCC(F)(F)F)n2)ccc1[C@@H]1CNCCO1", "note": "[Example 208, (R)—N-(3-Fluoro-4-(morpholin-2-yl)phenyl)-4-(2,2,2-trifluoroethoxy)pyrimidin-2-amine]", "values": [{"measurement": "Ki", "setting": "mouse TAAR1", "value": 0.003, "unit": "µM"}, {"measurement": "Ki", "setting": "rat TAAR1", "value": 0.0035, "unit": "µM"}]}
{"smiles": "Fc1cc(Nc2ncc(F)c(OCC(F)(F)F)n2)ccc1[C@@H]1CNCCO1", "note": "[Example 209, (R)-5-Fluoro-N-(3-fluoro-4-(morpholin-2-yl)phenyl)-4-(2,2,2-trifluoroethoxy)pyrimidin-2-amine]", "values": [{"measurement": "Ki", "setting": "mouse TAAR1", "value": 0.0032, "unit": "µM"}, {"measurement": "Ki", "setting": "rat TAAR1", "value": 0.0025, "unit": "µM"}]}
{"smiles": "Fc1cc(Nc2ncc(Cl)cn2)ccc1[C@@H]1CNCCO1", "note": "[Example 210, (R)-5-Chloro-N-(3-fluoro-4-(morpholin-2-yl)phenyl)pyrimidin-2-amine]", "values": [{"measurement": "Ki", "setting": "mouse TAAR1", "value": 0.0047, "unit": "µM"}, {"measurement": "Ki", "setting": "rat TAAR1", "value": 0.0266, "unit": "µM"}]}
{"smiles": "FC(F)(F)COc1ccnc(Nc2ccc([C@@H]3CNCCO3)c(Cl)c2)n1", "note": "[Example 211, ((R)-3-Chloro-4-morpholin-2-yl-phenyl)-[4-(2,2,2-trifluoro-ethoxy)-pyrimidin-2-yl]-amine]", "values": [{"measurement": "Ki", "setting": "mouse TAAR1", "value": 0.0042, "unit": "µM"}, {"measurement": "Ki", "setting": "rat TAAR1", "value": 0.0011, "unit": "µM"}]}
{"smiles": "CCN(C[C@H]1COC(N)=N1)c1ccccc1", "note": "[^3[H]-(S)-4-[(ethyl-phenylamino)-methyl]-4,5-dihydro-oxazol-2-ylamine, reference compound]", "values": [{"measurement": "pKd", "setting": "mouse TAAR1; mouse TAAR1 membranes, saturation curve, usual value, read-out: dissociation constant (Kd) of the radioligand", "value": "~9.15"}, {"measurement": "pKd", "setting": "rat TAAR1; rat TAAR1 membranes, saturation curve, usual value, read-out: dissociation constant (Kd) of the radioligand", "value": "~8.64"}]}
